# Assay results taken from patent publication US6413935B1, “Induction of immune response against desired determinants” (priority 1993, dated 2002).
# Values joined by “and” are separate entries in the source; they are usually repeats but may differ in a detail not shown here. Identical values can stand only once. Like-named read-outs stand apart in the source and are kept apart here.
# Experiments:
# [1] = test system: C57BL/6J (H-2^b+) mice; details: mouse, in vivo, sc
# [2] = test system: human PBMC T cell lines; type: cell-based
# [3] = molecular target: T1, IA^b (Mus musculus, UniProt P14434+P14483); test: biochemical; type: binding
# T1 construct: Various cell lines were used as sources of purified human and mouse class II molecules; endogenous in cells; host or cells: DB27.4
# T1 sequence (P14434 24-256): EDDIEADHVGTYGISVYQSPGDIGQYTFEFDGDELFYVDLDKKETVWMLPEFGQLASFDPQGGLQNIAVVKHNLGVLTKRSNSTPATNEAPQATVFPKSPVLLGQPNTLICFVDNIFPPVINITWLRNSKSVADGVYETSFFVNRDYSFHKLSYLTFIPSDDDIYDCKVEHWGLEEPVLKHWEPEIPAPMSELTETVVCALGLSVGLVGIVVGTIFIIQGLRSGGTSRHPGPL
# T1 sequence (P14483 28-265): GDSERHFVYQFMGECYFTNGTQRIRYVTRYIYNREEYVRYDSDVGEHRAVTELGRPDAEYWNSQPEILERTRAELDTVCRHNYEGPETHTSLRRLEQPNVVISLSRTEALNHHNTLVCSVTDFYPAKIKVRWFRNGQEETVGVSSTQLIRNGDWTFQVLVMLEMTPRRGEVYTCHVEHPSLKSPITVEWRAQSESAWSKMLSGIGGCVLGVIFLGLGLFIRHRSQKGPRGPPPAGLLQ
# [4] = molecular target: T2, IA^s (Mus musculus, UniProt P06345+P14437); test: biochemical; type: binding; details: Table III; read-out: Capacity to bind purified IA^s, IC50
# T2 construct: Various cell lines were used as sources of purified human and mouse class II molecules; endogenous in cells; host or cells: LS102.9
# T2 sequence (P14437 1-233): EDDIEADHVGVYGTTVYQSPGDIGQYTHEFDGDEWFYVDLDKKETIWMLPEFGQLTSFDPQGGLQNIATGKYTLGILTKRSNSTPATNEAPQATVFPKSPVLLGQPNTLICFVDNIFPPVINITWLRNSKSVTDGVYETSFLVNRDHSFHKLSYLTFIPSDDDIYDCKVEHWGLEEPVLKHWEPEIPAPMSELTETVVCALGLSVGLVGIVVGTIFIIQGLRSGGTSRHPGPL
# T2 sequence (P06345 28-263): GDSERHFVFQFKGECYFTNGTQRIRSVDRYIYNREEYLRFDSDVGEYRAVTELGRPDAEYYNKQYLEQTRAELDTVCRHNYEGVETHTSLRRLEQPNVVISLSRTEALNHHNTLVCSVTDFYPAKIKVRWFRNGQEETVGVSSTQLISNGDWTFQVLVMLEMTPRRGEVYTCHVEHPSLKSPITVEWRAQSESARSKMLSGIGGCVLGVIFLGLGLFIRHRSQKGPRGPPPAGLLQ
# [5] = molecular target: T3, IA^k (Mus musculus, UniProt P01910+P06343); test: biochemical; type: binding; details: Table III; read-out: Capacity to bind purified IA^k, IC50
# T3 construct: Various cell lines were used as sources of purified human and mouse class II molecules; endogenous in cells; host or cells: CH12
# T3 sequence (P01910 24-256): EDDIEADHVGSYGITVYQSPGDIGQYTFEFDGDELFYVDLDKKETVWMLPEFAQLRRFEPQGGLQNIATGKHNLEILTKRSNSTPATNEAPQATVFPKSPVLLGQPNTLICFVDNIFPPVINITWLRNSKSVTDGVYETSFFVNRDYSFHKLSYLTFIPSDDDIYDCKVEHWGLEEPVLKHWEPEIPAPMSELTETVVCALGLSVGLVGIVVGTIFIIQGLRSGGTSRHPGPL
# T3 sequence (P06343 28-263): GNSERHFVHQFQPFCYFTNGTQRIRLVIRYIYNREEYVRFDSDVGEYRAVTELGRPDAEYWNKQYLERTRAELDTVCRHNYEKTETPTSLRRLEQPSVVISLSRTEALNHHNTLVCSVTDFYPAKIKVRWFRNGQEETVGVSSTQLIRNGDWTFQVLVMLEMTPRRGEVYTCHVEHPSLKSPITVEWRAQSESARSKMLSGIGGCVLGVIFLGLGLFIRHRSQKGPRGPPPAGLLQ
# [6] = molecular target: T4, IA^d (Mus musculus, UniProt P01921+P04228); test: biochemical; type: binding; details: Table III; read-out: Capacity to bind purified IA^d, IC50
# T4 construct: Various cell lines were used as sources of purified human and mouse class II molecules; endogenous in cells; host or cells: A20
# T4 sequence (P04228 24-256): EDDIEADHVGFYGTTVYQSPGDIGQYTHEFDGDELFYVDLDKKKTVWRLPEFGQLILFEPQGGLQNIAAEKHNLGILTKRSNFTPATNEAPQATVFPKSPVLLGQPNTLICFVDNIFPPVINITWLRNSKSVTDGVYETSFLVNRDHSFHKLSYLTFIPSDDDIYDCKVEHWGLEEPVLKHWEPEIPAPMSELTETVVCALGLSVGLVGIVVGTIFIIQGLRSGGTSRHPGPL
# T4 sequence (P01921 28-265): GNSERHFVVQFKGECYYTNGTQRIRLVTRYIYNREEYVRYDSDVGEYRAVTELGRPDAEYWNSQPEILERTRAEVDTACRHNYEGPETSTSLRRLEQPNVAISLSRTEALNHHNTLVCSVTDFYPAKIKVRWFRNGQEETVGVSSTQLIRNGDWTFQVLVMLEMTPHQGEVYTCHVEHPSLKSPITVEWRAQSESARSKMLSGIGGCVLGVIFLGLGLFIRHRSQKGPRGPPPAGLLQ
# [7] = molecular target: T5, IE^d (Mus musculus, UniProt P01904+P01915); test: biochemical; type: binding
# T5 construct: Various cell lines were used as sources of purified human and mouse class II molecules; endogenous in cells; host or cells: A20
# T5 sequence (P01904 26-255): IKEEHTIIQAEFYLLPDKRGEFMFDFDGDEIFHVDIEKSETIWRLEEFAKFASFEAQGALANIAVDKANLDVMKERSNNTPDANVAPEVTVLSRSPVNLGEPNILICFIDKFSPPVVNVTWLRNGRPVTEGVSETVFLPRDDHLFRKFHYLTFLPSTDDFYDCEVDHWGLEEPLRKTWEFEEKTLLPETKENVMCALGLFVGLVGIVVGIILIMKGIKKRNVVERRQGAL
# T5 sequence (P01915 27-264 limits assumed): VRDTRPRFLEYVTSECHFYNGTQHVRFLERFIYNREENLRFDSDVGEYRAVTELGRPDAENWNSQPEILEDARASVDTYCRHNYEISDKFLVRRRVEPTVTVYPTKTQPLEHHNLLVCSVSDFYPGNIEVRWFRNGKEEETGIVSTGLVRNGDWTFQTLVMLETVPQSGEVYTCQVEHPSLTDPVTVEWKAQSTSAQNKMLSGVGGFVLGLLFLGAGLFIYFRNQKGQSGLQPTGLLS
# [8] = test system: DR5; details: read-out: PADRE Class II Binding Affinities DR5, Table IX
# [9] = molecular target: DR4w4 (Homo sapiens, UniProt P01903+P01911, A100K/A169T/F76Y/I96L/K127E/L162R/M171V/N62H/P40V/Q125Y/R42H/S133A/S149N/S66Y/V115G/V209L/W38E); test: biochemical; details: PADRE Class II Binding Affinities DR4w4
# [10] = molecular target: DR1 (Homo sapiens, UniProt P01903+P01911, A100R/D57E/F55L/F60I/F76Y/I96L/L162R/M171V/P40L/Q125E/R42F/V115G/Y59C); test: biochemical
# [11] = molecular target: DR3 (Homo sapiens, UniProt P01903+P01911, A100K/A102G/A103R/A169T/F55Y/I96L/K41T/L162R/M171V/P40S/Q125H/Q178H/Q39Y/R42S/S66N/T106N/T262R/W38E/Y61H); test: biochemical; details: PADRE Class II Binding Affinities DR3, Table IX
# [12] = molecular target: DR2w2a (Homo sapiens, UniProt P01903+Q30154); test: biochemical; details: PADRE Class II Binding Affinities DR2w282, Table IX
# DR2w2a, sequence (P01903 26-254): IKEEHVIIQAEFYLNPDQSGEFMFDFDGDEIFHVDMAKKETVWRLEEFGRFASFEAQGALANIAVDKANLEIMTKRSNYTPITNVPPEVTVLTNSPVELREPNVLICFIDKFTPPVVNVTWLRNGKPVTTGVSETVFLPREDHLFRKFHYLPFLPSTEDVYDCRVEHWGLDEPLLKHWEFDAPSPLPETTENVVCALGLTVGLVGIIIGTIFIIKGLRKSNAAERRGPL
# DR2w2a, sequence (Q30154 30-266): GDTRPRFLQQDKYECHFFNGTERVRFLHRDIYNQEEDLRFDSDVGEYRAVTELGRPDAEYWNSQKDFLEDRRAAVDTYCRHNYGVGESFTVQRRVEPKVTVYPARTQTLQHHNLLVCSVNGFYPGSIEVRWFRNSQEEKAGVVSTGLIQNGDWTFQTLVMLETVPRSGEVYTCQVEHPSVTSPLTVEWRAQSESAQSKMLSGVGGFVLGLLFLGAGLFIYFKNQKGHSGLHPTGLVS
# [13] = test system: IE^k; type: binding, mouse; details: Table III; read-out: Capacity to bind purified IE^k, IC50
# [14] = test system: DR7; details: read-out: PADRE Class II Binding Affinities DR7; Table IX; listed as 965.012
# [15] = Table III, read-out: Capacity to bind purified IE^d, IC50
# [16] = PADRE Class II Binding Affinities DR1, Table IX
smiles,measurement,setting,value
"CC[C@H](C)[C@H](NC(=O)CNC(=O)[C@@H](NC(=O)[C@H](Cc1ccccc1)NC(=O)[C@H](CCCCN)NC(=O)[C@H](CO)NC(=O)[C@H](CC(N)=O)NC(=O)[C@H](C)NC(=O)[C@H](CCCCN)NC(=O)[C@@H](NC(=O)[C@H](Cc1ccc(O)cc1)NC(=O)[C@@H](N)CCC(N)=O)[C@@H](C)CC)[C@@H](C)CC)C(=O)N[C@H](C(=O)N[C@@H](CCC(=O)O)C(=O)O)[C@@H](C)O [Tet Tox 830-843, reference compound]",T cell proliferative response of primed lymph node cells,[1],unable to generate a specific T cell proliferative response
same,"Donors with significant (>10,000 cpm) T cell response / donors tested, second stimulation",[2],3/12
same,"Donors with significant (>10,000 cpm) T cell response / donors tested, third stimulation",[2],7/12
same,"Capacity to bind purified IA^b, IC50",[3],did not bind IA^b appreciably
CC[C@H](C)[C@H](NC(=O)CNC(=O)[C@H](Cc1ccc(O)cc1)NC(=O)[C@H](CC(=O)O)NC(=O)[C@@H](NC(=O)[C@H](CO)NC(=O)CNC(=O)[C@H](CC(=O)O)NC(=O)[C@@H](NC(=O)[C@@H](N)CC(N)=O)[C@@H](C)O)[C@@H](C)O)C(=O)N[C@@H](CC(C)C)C(=O)N[C@@H](CCC(N)=O)C(=O)N[C@H](C(=O)N[C@@H](CC(N)=O)C(=O)N[C@@H](CO)C(=O)N[C@@H](CCCNC(=N)N)C(=O)O)[C@@H](C)CC [HEL46-61],IC50,[4],> 10 µM
same,IC50,[5],0.02 µM
same,IC50,[6],1.22 µM
same,IC50,[3],7 µM
same,IC50,[7]; [15],8.5 µM
CC(C)C[C@H](NC(=O)[C@@H](NC(=O)[C@H](Cc1ccc(O)cc1)NC(=O)[C@H](C)NC(=O)[C@H](C)NC(=O)[C@@H](NC(=O)[C@H](CC1CCCCC1)NC(=O)[C@H](CCCCN)NC(=O)[C@@H](C)N)C(C)C)[C@@H](C)O)C(=O)N[C@@H](CCCCN)C(=O)N[C@@H](C)C(=O)N[C@@H](C)C(=O)N[C@H](C)C(N)=O [Peptide 965.091],IC50,[8]; listed as 965.092,0.0065 µM
same,IC50,[9],0.001 µM
same,IC50,[10]; PADRE Class II Binding Affinities DR1,0.0008 µM
same,IC50,[10]; [16],0.0006 µM
same,IC50,[11],0.45 µM and 3.21 µM
same,"Donors with significant (>10,000 cpm) T cell response / donors tested, second stimulation",[2],4/5
same,"Donors with significant (>10,000 cpm) T cell response / donors tested, third stimulation",[2],4/5
same,IC50,[12],0.0074 µM and 0.0064 µM
"CC[C@H](C)[C@H](NC(=O)[C@@H]1CCCN1C(=O)[C@H](C)NC(=O)[C@H](CC(N)=O)NC(=O)[C@@H]1CCCN1C(=O)[C@@H]1CCCN1C(=O)[C@H](CCCNC(=N)N)NC(=O)[C@H](Cc1ccc(O)cc1)NC(=O)[C@H](C)NC(=O)[C@@H]1CCCN1C(=O)[C@@H]1CCCN1C(=O)[C@@H](N)[C@@H](C)O)C(=O)N[C@@H](CC(C)C)C(=O)O [HBVc 128-140, reference compound]",IC50,[13],> 10 µM
CC(C)C[C@H](NC(=O)[C@H](Cc1c[nH]c2ccccc12)NC(=O)[C@H](CCCCN)NC(=O)CNC(=O)[C@H](CC(C)C)NC(=O)[C@H](CO)NC(=O)[C@@H](N)Cc1c[nH]cn1)C(=O)NCC(=O)N[C@@H](Cc1c[nH]cn1)C(=O)N1CCC[C@H]1C(=O)N[C@@H](CC(=O)O)C(=O)N[C@@H](CCCCN)C(=O)N[C@@H](Cc1ccccc1)C(=O)O [PLP 139-151],IC50,[4],0.086 µM
same,IC50,[5],> 10 µM
same,IC50,[6],> 10 µM
same,IC50,[3],> 3.1 µM
same,IC50,[7]; [15],> 10 µM
CC[C@H](C)[C@H](NC(=O)[C@H](C)NC(=O)[C@H](CCCCN)NC(=O)[C@H](CC(C)C)NC(=O)[C@H](CCCNC(=N)N)NC(=O)[C@H](CCCNC(=N)N)NC(=O)[C@H](C)NC(=O)[C@H](CC(=O)O)NC(=O)[C@H](CCC(=O)O)NC(=O)[C@H](CC(C)C)NC(=O)[C@@H](N)Cc1ccc(O)cc1)C(=O)N[C@@H](Cc1ccc(O)cc1)C(=O)N[C@@H](CCC(=O)O)C(=O)N[C@@H](CCCCN)C(=O)N[C@@H](CCCCN)C(=O)N[C@@H](CCCCN)C(=O)O [Iambda rep 12-26],IC50,[4],> 10 µM
same,IC50,[5],> 10 µM
same,IC50,[6],1.1 µM
same,IC50,[3],> 10 µM
same,IC50,"[7]; Allele IEd, read-out: Avg. IC50 of assay standard",0.17 µM
"CC[C@H](C)[C@H](N)C(=O)N[C@@H](CO)C(=O)N[C@@H](CCC(N)=O)C(=O)N[C@@H](C)C(=O)N[C@H](C(=O)N[C@@H](Cc1c[nH]cn1)C(=O)N[C@@H](C)C(=O)N[C@@H](C)C(=O)N[C@@H](Cc1c[nH]cn1)C(=O)N[C@@H](C)C(=O)N[C@@H](CCC(=O)O)C(=O)N[C@H](C(=O)N[C@@H](CC(N)=O)C(=O)N[C@@H](CCC(=O)O)C(=O)O)[C@@H](C)CC)C(C)C [Ova 323-336, ISQAVHAAHAEINE]",IC50,[4],1.04 µM
same,IC50,[5],1 µM
same,IC50,[7]; [15],> 10 µM
CC(C)C[C@H](NC(=O)[C@@H](NC(=O)[C@H](CC(N)=O)NC(=O)[C@H](C)NC(=O)[C@H](CCCCN)NC(=O)[C@@H](NC(=O)[C@H](CC1CCCCC1)NC(=O)[C@H](CCCCN)NC(=O)[C@@H](C)N)C(C)C)[C@@H](C)O)C(=O)N[C@@H](CCCCN)C(=O)N[C@@H](C)C(=O)N[C@@H](C)C(=O)N[C@H](C)C(N)=O [Peptide 965.011],IC50,[8],0.0118 µM
same,IC50,[8]; listed as 965.012,0.0022 µM
same,IC50,[14],0.781 µM
same,IC50,[10]; [16],0.0015 µM and 0.0013 µM
same,IC50,[11],0.592 µM and 4.59 µM
same,IC50,[12],0.0125 µM and 0.0105 µM
